Marks after values point to notes of the source that are not given here.
Assays:
Fisher F344 rats [1] = experiment: Hypocholesterolemic effects of five small peptides in Fisher F344 rats, hypercholesterolemic rat model (Example 9); type: in vivo; conditions: 100 mg/kg BW oral, 7 days, mean ± SD, n = 9-10; for HDL cholesterol (plasma): control 0.14 ± 0.08; for Total cholesterol (plasma): control 10.1 ± 2.2; for non HDL cholesterol (plasma): total minus HDL cholesterol, control 10.0 ± 2.2
Source text: In short eighty male Fisher rats (F344) from Charles River (Sulzfeld, Germany), weighing 65-96 g were housed individually with free access to water and feed, with an alternating 12-hour light-dark cycle. The animals were fed a rodent atherogenic diet high in cholesterol and fat for the 2 weeks preceding the treatment. The macro-nutrient composition of the diet was as follows (g/100 g anhydrous mix): protein 20.8; fiber 4.2; fat 15; carbohydrate 48. The diet also contained 1.25 wt % cholesterol, 0.5 wt % sodium cholate and a standard vitamin and mineral mix, prepared according to rat nutritional requirements. The main fats consisted of cacoa butter (7.5 wt %) and soja oil (4.35 wt %). After 2 weeks of adaptation to the diet the rats were randomized according to body weight into […] of 10 animals. The […] were treated orally every morning for 7 days with either water (control group) or one of the following peptides: RPRPS, RGRPS, HPHPH, RPRP, KPKPS, at a dose of 100 mg/kg body weight (BW) while continuing the aetherogenic diet. There was no difference in feed consumption over the whole experiment. The day before the last administration, all animals were dosed orally in the evening and deprived of food overnight (14 hours) but allowed free access to water. At day 7 the fasted rats were treated again orally in the morning and after two hours the animals were sacrificed by withdrawing blood from the vena Cava under Isoflurane anesthesia. Blood was collected into tubes containing EDTA as an anticoagulant. Plasma was prepared from the blood by immediate centrifugation at 1600 g for 10 minutes at 4° C. Assays of plasma cholesterol and HDL-cholesterol (precipitation method) were determined enzymatically on a Hitachi 912 automatic analyzer (Roche Diagnostica, Switzerland). Non-HDL cholesterol was calculated by difference between total cholesterol and HDL cholesterol. One animal in the control group was excluded from the analysis due to hemolytic plasma which interfered with the measurements. All data are expressed as means±standard deviation (SD) for animals in each diet group, with n being the number of rats. Statistical significance of the mean differences between dietary groups was tested by one-way analysis of variance (ANOVA). If significant differences were found, the Dunnett's test for multiple comparison was used to compare each group to the control group. P values less than 0.05 were considered significant (Table 3).

[2] = Solubility of cholesterol in mixed micelles (intramicellar cholesterol after 24 h at 37° C., centrifugation and filtration); conditions: 10 mg/ml test substance, 0.5 mM cholesterol, 6.6 mM taurocholate, 2.4 mM lecithin, pH 7.4, control 0.494
Method: The mixed micelles were prepared according to the method described by Nagaoka et al. (Biochemical and Biophysical Research Communications 281: 11-17 (2001)) by sonication of a 15 mM phosphate buffer saline (PBS) solution containing 6.6 mM taurocholate, 2.4 mM lecithin, 0.5 mM cholesterol and either 10 mg/ml of octapeptide (RPRPRPSF, MW1012) or 10 mg/ml soy protein (SUPRO 760, Solea Belgium) at pH 7.4. The lipids, phospholipids and cholesterol were dissolved in methanol and dried before adding the PBS buffer and the peptides or the soy protein at a final concentration of 10 mg/ml. The resulting micellar solution was kept at 37° C. for 24 hours and centrifuged at 1000×g for 10 min. In order to separate any precipitated cholesterol from the intramicellar cholesterol the solution was then filtered through a 0.22 μm MILLEX-GP filter (Millipore, Bedford, Mass., USA). The intramicellar concentration of cholesterol was then determined enzymatically using a cholesterol kit and a Hitachi 912 automatic analyzer from Roche Diagnostica, Switzerland.

[3] = In vivo efficacy of peptide RPRPRPSF with and without beta-sitosterol (protocol of Nagaoka et al.); conditions: in combination with beta-sitosterol
Source text: Peptide RPRPRPSF is chemically synthesized and beta-sitosterol is obtained from Sigma. Both compounds, apart and in combination, are subjected to a testing protocol which is essentially similar to the in vivo testing protocol described by Nagaoka et al., BBRC 281 (2001) 11-17.

Fisher F344 rats [4] = experiment: Hypocholesterolemic effects of peptides in Fisher F344 rats on atherogenic diet (Example 8); type: in vivo, rat; conditions: 7 days; for HDL cholesterol (plasma) / Total cholesterol (plasma) / non HDL cholesterol (plasma): mean ± SD, n = 10; for HDL cholesterol (plasma): control 0.22 ± 0.12; for Total cholesterol (plasma): control 12.8 ± 3.1; for non HDL cholesterol (plasma): total minus HDL cholesterol, control 12.5 ± 3.1
Source text: Forty male Fisher rats (F344) from Charles River (Sulzfeld, Germany), weighing 70-85 g were housed individually with free access to water and feed, with an alternating 12-hour light-dark cycle. The animals were fed a rodent atherogenic diet high in cholesterol and fat for the 2 weeks preceding the treatment. The macro-nutrient composition of the diet was as follows (g/100 g anhydrous mix): protein 20.8; fiber 4.2; fat 15; carbohydrate 48. The diet also contained 1.25 wt % cholesterol, 0.5 wt % sodium cholate and a standard vitamin and mineral mix, prepared according to rat nutritional requirements. The main fats consisted of cacoa butter (7.5 wt %) and soja oil (4.35 wt %). After 2 weeks of adaptation to the diet the rats were randomized according to body weight into four experimental groups of 10 animals. The four groups were treated orally every morning for 7 days with either water (control group) or octapeptide (RPRPRPSF) at two doses of 200 and 800 mg/kg body weight (BW) respectively or soy protein (SUPRO 760) at 800 mg/kg BW while continuing the aetherogenic diet. There was no difference in feed consumption over the whole experiment. The day before the last administration, all animals were dosed orally in the evening and deprived of food overnight (14 hours) but allowed free access to water. At day 7 the fasted rats were treated again orally in the morning and after two hours the animals were sacrificed by withdrawing blood from the vena Cava under Isoflurane anesthesia. Blood was collected into tubes containing EDTA as an anticoagulant. Plasma was prepared from the blood by immediate centrifugation at 1600 g for 10 minutes at 4° C. Assays of plasma cholesterol and HDL-cholesterol (precipitation method) were determined enzymatically on a Hitachi 912 automatic analyzer (Roche Diagnostica, Switzerland). Non-HDL cholesterol was calculated by difference between total cholesterol and HDL cholesterol. All data are expressed as means±standard deviation (SD) for animals in each diet group, with n being the number of rats. Statistical significance of the mean differences between dietary groups was tested by one-way analysis of variance (ANOVA). If significant differences were found, the Dunnett's test for multiple comparison was used to compare each group to the control group. P values less than 0.05 were considered significant (Table 2).

[5] = 200 and 800 mg/Kg BW oral, p < 0.05

Row | Substance | HDL cholesterol (plasma) (Fisher F344 rats [1]) | Total cholesterol (plasma) (Fisher F344 rats [1]) | non HDL cholesterol (plasma) (Fisher F344 rats [1]) | further results
1 | HPHPH | 0.29 ± 0.13^b mmol/L | 3.4 ± 1.2^b mmol/L | 3.1 ± 1.3^b mmol/L | –
2 | KPKPS | 0.29 ± 0.11^b mmol/L | 3.0 ± 1.0^b mmol/L | 2.7 ± 1.0^b mmol/L | –
3 | RPRP | 0.33 ± 0.11^b mmol/L | 2.9 ± 0.4^b mmol/L | 2.6 ± 0.4^b mmol/L | –
4 | RPRPS | 0.29 ± 0.06^b mmol/L | 3.6 ± 1.1^b mmol/L | 3.3 ± 1.2^b mmol/L | –
5 | RPRPRPSF [synthetic octapeptide R-P-R-P-R-P-S-F, MW1012] | – | – | – | Cholesterol content of the micellar solution ([2]; listed as Octapeptide): 0.153 mmol/L; Cholesterol content of the micellar solution ([2]; listed as octapeptide (RPRPRPSF)): drastically decreased; Effect on cholesterol in vivo [3]: further enhanced; HDL cholesterol (plasma) (Fisher F344 rats [4]; 200 mg/Kg BW oral): 0.54 ± 0.20^b mmol/L; Total cholesterol (plasma) (Fisher F344 rats [4]; 200 mg/Kg BW oral): 4.1 ± 1.2^b mmol/L; non HDL cholesterol (plasma) (Fisher F344 rats [4]; 200 mg/Kg BW oral): 3.6 ± 1.2^b mmol/L; HDL cholesterol (plasma) (Fisher F344 rats [4]; 800 mg/Kg BW oral): 0.51 ± 0.17^b mmol/L; Total cholesterol (plasma) (Fisher F344 rats [4]; 800 mg/Kg BW oral): 3.4 ± 0.7^b mmol/L; non HDL cholesterol (plasma) (Fisher F344 rats [4]; 800 mg/Kg BW oral): 2.9 ± 0.7^b mmol/L; Non-HDL cholesterol (VLDL-cholesterol+LDL-cholesterol) levels as compared to the control group (Fisher F344 rats [4]; [5]): significantly lowered; Plasma total cholesterol levels as compared to the control group (Fisher F344 rats [4]; [5]): significantly lowered; Ratio of non-HDL cholesterol to HDL-cholesterol (Fisher F344 rats [4]; oral): positively affected; Plasma HDL-cholesterol compared to the control group (Fisher F344 rats [4]; oral, p < 0.05): significantly increased
6 | RGRPS | 0.37 ± 0.14^b mmol/L | 3.2 ± 0.4^b mmol/L | 2.9 ± 0.4^b mmol/L | –
